Measured values as given in patent US20250115558A1, “PYRIDAZINE DERIVATIVES AND RELATED USES” (NodThera Limited, priority 2023, published 2025).
pIC50: −log10 of the molar value. Counter-ions that a name gives are not always drawn.

Tests used:
[1] = tested on: IL-1β release upon NLRP3 activation in peripheral blood mononuclear cells (PBMC); experiment: PBMC IC50 Determination Assay; format: cell-based; details: Homo sapiens; inhibition of IL-1β release; LPS-primed PBMC stimulated with ATP or nigericin
Description: The compounds of the present disclosure were tested for their inhibitory activity against IL-1β release upon NLRP3 activation in peripheral blood mononuclear cells (PBMC).
Protocol A. PBMC were isolated from buffy coats by density gradient centrifugation on Histopaque-1077 (Sigma, cat no. 10771). Isolated cells were seeded into the wells of a 96-well plate and incubated for 3 h with lipopolysaccharide (LPS). Following medium exchange, the compounds of the present disclosure were added (a single compound per well) and the cells were incubated for 30 min. Next, the cells were stimulated either with ATP (5 mM) or nigericin (10 μM) for 1 h and the cell culture media from the wells were collected for further analysis.
The release of IL-1β into the media was determined by a quantitative detection of IL-1β in the media using an IL-1β enzyme-linked immunosorbent assay (ELISA) Ready-SET-Go!, eBioscience cat. No. 88-7261-88. Briefly, in a first step, high affinity binding plates (Corning, Costar 9018 or NUNC Maxisorp Cat No. 44-2404) were coated overnight at 4° C. with specific capture antibody included in the kit (anti-human IL-1β ref. 14-7018-68). Subsequently, plates were blocked with blocking buffer for 1 h at room temperature (rt) and after washing with a buffer (PBS with 0.05% Tween-20) incubated with protein standard and culture media. After 2 h of incubation at rt, plates were washed and incubated with biotinylated detection antibody included in the kit (anti-human IL-1β Biotin ref. 33-7110-68) for 1 h at rt. Plates were washed and incubated with HRP-streptavidin for 30 min at rt and washed again. The signal was developed after addition of 3,3′,5,5′-tetramethylbenzidine-peroxidase (TMB) until colour appeared and the reaction was stopped by 2 M H2SO4. A microplate spectrophotometer (BioTek) was used to detect signals with 450 nm. The detection range of IL-1β ELISA was […].
Protocol B. PBMC were isolated from buffy coats by density gradient centrifugation on Histopaque-1077 (Sigma, cat no. 10771). Isolated cells were seeded into the wells (280,000 cells/well) of a 96-well plate and incubated for 3 h with lipopolysaccharide (LPS, 1 μg/mL diluted 1000× from a 1 mg/mL stock solution). The compounds of the present disclosure were added (a single compound per well) and the cells were incubated for 30 min. Next, the cells were stimulated with ATP (5 mM final concentration diluted 20× from a 100 mM stock solution) for 1 h and the cell culture media from the wells were collected for further analysis.
The release of IL-1β into the media was determined by quantitative detection of IL-1β in the media using HTRF®, CisBio cat. No. 62HIL1BPEH. Briefly, cell culture supernatant were dispensed directly into the assay plate containing antibodies labelled with the HTRF® donor and acceptor. A microplate spectrophotometer (BMG) was used to detect signals at 655 nm and 620 nm. The detection range of IL-1β HTRF® was 39-6500 μg/mL.

[2] = tested on: THP-1; experiment: THP-1 IC50 assay; format: cell-based; details: Homo sapiens; THP-1 cells

SMILES | pIC50 [1] | pIC50 [2]
Cc1cc(Cl)cc(O)c1-c1ccc(CN(C)[C@H]2CCOC2)nn1 [Compound 59, (S)-5-Chloro-3-methyl-2-(6-((methyl(tetrahydrofuran-3-yl)amino)methyl)pyridazin-3-yl)phenol] | 5.52 to 6.00 | 6.00 to 6.30
CO[C@@H]1CCN(Cc2ccc(-c3c(C)cc(Cl)cc3O)nn2)C1 [Compound 60, (R)-5-Chloro-2-(6-((3-methoxypyrrolidin-1-yl)methyl)pyridazin-3-yl)-3-methylphenol] | 5.52 to 6.00 | 5.52 to 6.00
CO[C@H]1CCN(Cc2ccc(-c3c(C)cc(Cl)cc3O)nn2)C1 [Compound 61, (S)-5-Chloro-2-(6-((3-methoxypyrrolidin-1-yl)methyl)pyridazin-3-yl)-3-methylphenol] | 5.52 to 6.00 | 5.52 to 6.00
Cc1cc(Cl)cc(O)c1-c1ccc(CN2CCCC2=O)nn1 [Compound 62, 1-[[6-(4-chloro-2-hydroxy-6-methyl-phenyl)pyridazin-3-yl]methyl]pyrrolidin-2-one] | > 6.30 | > 6.30
Cc1cc(Cl)cc(O)c1-c1ccc(CO[C@@H]2CCOC2)nn1 [Compound 63, (R)-5-Chloro-3-methyl-2-(6-(((tetrahydrofuran-3-yl)oxy)methyl)pyridazin-3-yl)phenol] | > 6.30 | 6.00 to 6.30
Cc1cc(Cl)cc(O)c1-c1ccc(CO[C@H]2CCOC2)nn1 [Compound 64, (S)-5-Chloro-3-methyl-2-(6-(((tetrahydrofuran-3-yl)oxy)methyl)pyridazin-3-yl)phenol] | > 6.30 | > 6.30
Cc1cc(Cl)cc(O)c1-c1ccc(COC2COC2)nn1 [Compound 65, 5-Chloro-3-methyl-2-(6-((oxetan-3-yloxy)methyl)pyridazin-3-yl)phenol] | > 6.30 | 6.00 to 6.30
Cc1cc(Cl)cc(O)c1-c1ccc(CN[C@@H]2CCC(=O)N(C)C2)nn1 [Compound 66, (R)-5-(((6-(4-Chloro-2-hydroxy-6-methylphenyl)pyridazin-3-yl)methyl)amino)-1-methylpiperidin-2-one] | 6.00 to 6.30 | 5.52 to 6.00
Cc1cc(Cl)cc(O)c1-c1ccc(CN2CCOC2=O)nn1 [Compound 67, 3-((6-(4-Chloro-2-hydroxy-6-methylphenyl)pyridazin-3-yl)methyl)oxazolidin-2-one] | > 6.30 | > 6.30
CC(=O)N1CCC(OCc2ccc(-c3c(C)cc(Cl)cc3O)nn2)C1 (stereo not shown) [Compound 68, 1-(3-((6-(4-Chloro-2-hydroxy-6-methylphenyl)pyridazin-3-yl)methoxy)pyrrolidin-1-yl)ethan-1-one] | 6.00 to 6.30 | 6.00 to 6.30
Oc1cc(Cl)cc(F)c1-c1ccc(CNC2CCOCC2)nn1 [Compound 69, 5-Chloro-3-fluoro-2-(6-(((tetrahydro-2H-pyran-4-yl)amino)methyl)pyridazin-3-yl)phenol hydrochloride] | 5.00 to 5.52 | 5.00 to 5.52
Cc1cc(OC(F)F)cc(O)c1-c1ccc(CNC2CCOCC2)nn1 [Compound 70, 5-(Difluoromethoxy)-3-methyl-2-(6-(((tetrahydro-2H-pyran-4-yl)amino)methyl)pyridazin-3-yl)phenol] | 5.52 to 6.00 | 5.52 to 6.00
Cc1cc(C(F)(F)F)cc(O)c1-c1ccc(CNC2CCN(C)C2)nn1 (stereo not shown) [Compound 71, 3-Methyl-2-(6-(((1-methylpyrrolidin-3-yl)amino)methyl)pyridazin-3-yl)-5-(trifluoromethyl)phenol dihydrochloride] | 6.00 to 6.30 | 5.52 to 6.00
CC(=O)N1CC[C@@H](NCc2ccc(-c3c(C)cc(Cl)cc3O)nn2)C1 [Compound 72, (R)-1-(3-(((6-(4-Chloro-2-hydroxy-6-methylphenyl)pyridazin-3-yl)methyl)amino)pyrrolidin-1-yl)ethan-1-one] | 6.00 to 6.30 | 5.52 to 6.00
CC(=O)N1CC[C@H](NCc2ccc(-c3c(C)cc(Cl)cc3O)nn2)C1 [Compound 73, (S)-1-(3-(((6-(4-Chloro-2-hydroxy-6-methylphenyl)pyridazin-3-yl)methyl)amino)pyrrolidin-1-yl)ethan-1-one] | > 6.30 | > 6.30
Cc1cc(C(F)(F)F)cc(O)c1-c1ccc(CNc2ncccn2)nn1 [Compound 74, 3-Methyl-2-(6-((pyrimidin-2-ylamino)methyl)pyridazin-3-yl)-5-(trifluoromethyl)phenol] | 5.52 to 6.00 | 5.52 to 6.00
Cc1cc(C(F)(F)F)cc(O)c1-c1ccc(CNc2ccncn2)nn1 [Compound 75, 3-Methyl-2-(6-((pyrimidin-4-ylamino)methyl)pyridazin-3-yl)-5-(trifluoromethyl)phenol hydrochloride] | 6.00 to 6.30 | > 6.30
Cc1cc(C(F)(F)F)cc(O)c1-c1ccc(CNCC2CCCN2C)nn1 (stereo not shown) [Compound 76, 3-Methyl-2-(6-((((1-methylpyrrolidin-2-yl)methyl)amino)methyl)pyridazin-3-yl)-5-(trifluoromethyl)phenol dihydrochloride] | 5.52 to 6.00 | 5.52 to 6.00
Cc1cc(C(F)(F)F)cc(O)c1-c1ccc(CNCC2CCN(C)C2)nn1 (stereo not shown) [Compound 77, 3-Methyl-2-[6-({[(1-methylpyrrolidin-3-yl)methyl]amino}methyl)pyridazin-3-yl]-5-(trifluoromethyl)phenol dihydrochloride] | 5.52 to 6.00 | 5.52 to 6.00
Cc1cc(C(F)(F)F)cc(O)c1-c1ccc(CNc2ccccn2)nn1 [Compound 78, 3-Methyl-2-(6-{[(pyridin-2-yl)amino]methyl}pyridazin-3-yl)-5-(trifluoromethyl)phenol] | ≤ 5.00 | ≤ 5.00
Cc1cc(C(F)(F)F)cc(O)c1-c1ccc(CNc2cccnc2)nn1 [Compound 79, 3-Methyl-2-(6-{[(pyridin-3-yl)amino]methyl}pyridazin-3-yl)-5-(trifluoromethyl)phenol] | 6.00 to 6.30 | 6.00 to 6.30
Cc1cc(C(F)(F)F)cc(O)c1-c1ccc(C(C)N2CCCC2=O)nn1 (stereo not shown) [Compound 80, 1-(1-{6-[2-Hydroxy-6-methyl-4-(trifluoromethyl)phenyl]pyridazin-3-yl}ethyl)pyrrolidin-2-one] | > 6.30 | 5.52 to 6.00
Cc1cc(C(F)(F)F)cc(O)c1-c1ccc(C(C)(C)N2CCCC2=O)nn1 [Compound 81, 1-(2-{6-[2-Hydroxy-6-methyl-4-(trifluoromethyl)phenyl]pyridazin-3-yl}propan-2-yl)pyrrolidin-2-one] | 5.52 to 6.00 | 5.52 to 6.00
Cc1cc(C(F)(F)F)cc(O)c1-c1ccc(CNc2nccn2C)nn1 [Compound 82, 3-Methyl-2-(6-{[(1-methyl-1H-imidazol-2-yl)amino]methyl}pyridazin-3-yl)-5-(trifluoromethyl)phenol hydrochloride] | 6.00 to 6.30 | 5.52 to 6.00
Cc1cnc(NCc2ccc(-c3c(C)cc(C(F)(F)F)cc3O)nn2)s1 [Compound 83, 3-Methyl-2-(6-{[(5-methyl-1,3-thiazol-2-yl)amino]methyl}pyridazin-3-yl)-5-(trifluoromethyl)phenol] | 6.00 to 6.30 | 5.52 to 6.00
Cc1cc(NCc2ccc(-c3c(C)cc(C(F)(F)F)cc3O)nn2)sn1 [Compound 84, 3-Methyl-2-(6-{[(3-methyl-1,2-thiazol-5-yl)amino]methyl}pyridazin-3-yl)-5-(trifluoromethyl)phenol] | 6.00 to 6.30 | 6.00 to 6.30
Oc1cc(C(F)(F)F)cc(C(F)(F)F)c1-c1ccc(CNC2CCOCC2)nn1 [Compound 85, 2-(6-{[(Oxan-4-yl)amino]methyl}pyridazin-3-yl)-3,5-bis(trifluoromethyl)phenol] | 5.52 to 6.00 | 5.52 to 6.00
Cc1cc(C(F)(F)F)cc(O)c1-c1ccc(C2(N3CCCC3=O)CC2)nn1 [Compound 86, 1-(1-{6-[2-Hydroxy-6-methyl-4-(trifluoromethyl)phenyl]pyridazin-3-yl}cyclopropyl)pyrrolidin-2-one] | 6.00 to 6.30 | 6.00 to 6.30
Cc1cc(Cl)cc(O)c1-c1ccc(CN[C@H]2CCC(=O)N(C)C2)nn1 [Compound 87, (5S)-5-({[6-(4-Chloro-2-hydroxy-6-methylphenyl)pyridazin-3-yl]methyl}amino)-1-methylpiperidin-2-one] | > 6.30 | > 6.30
